In patent US7034047B2, “Triazole derivative” (Astellas Pharma, Inc., priority 2000, dated 2006):

Experiments:
[1] = system: (+)-HA966-induced enhancement of activity; assay: (+)-HA966-induced enhancement of activity in mouse; assay type: in vivo, male ICR mouse; conditions: orally given at 10 mg/kg; below 50% judged to have the effect
Excerpt: Compound 1: • 3-(biphenyl-4-yl)-4-(2-methoxyphenyl)-5-methyl-4H-1,2,4-triazole (Japanese Patent unexamined uplication No. 2000-63363; Example 33) Compound 2: • 3-(biphenyl-4-yl)-5-(furan-2-yl)-4-phenyl-4H-1,2,4-triazole (LTPBP42 CD-ROM catalog 1996 of LaboTest Co. (Freiberg, Germany)) Compound 3: • 3-(biphenyl-4-yl)-5-ethyl-4-(2-methoxyphenyl)-4H-1,2,4-triazole (Japanese Patent unexamined publication No. 2000-63363; Example 23) 2. Experimental Method of (+)-HA966—Induced Enhancement of Activity in Mouse
The method reported previously (J. Neural Transm., 97: 175–185, 1994) was used for carrying out the experiment with modification. • Animal: male ICR mouse (Nippon SLC; age 5 to 7 weeks) • Chemical drug: reserpine (Apoplon Injection of 1 mg/ml; manufactured by Daiichi Pharmaceuticals Co., Ltd.), (+)-HA966 (Proc. Nat. Acad. Sci. U.S.A., 87, 347–351, 1990), α-methyl-para-tyrosine methyl ester (Sigma,Inc.). • Experimental apparatus: Supermex (Muromachi Machine) Experimental Method • (1) Pharmaceutical drug-treated groups were defined as follows. […] The effect was determined as follows. […] It was calculated by following formula. […]

[2] = system: (+)-HA966-induced learning disability; assay: (+)-HA966-induced learning disability (mouse passive avoidance test); assay type: in vivo, male ddY mouse; conditions: dosed intraperitoneally; step-through latency, p<0.05
Excerpt: 3. (+)-HA966-Induced Learning Disability (Mouse Passive Avoidance Test)
• Animal: male ddY mouse (Nippon SLC; age 7 to 9 weeks at training) was used. 16 to 32 animals were used per one group. <Experimental Procedures> Preparation of Pharmaceutical Drugs • (1) A test compound for oral administration was suspended in aqueous 0.5%methyl cellulose solution, and for intraperitoneal administration was suspended in solution dissolved 0.5% of methyl cellulose solution in saline (hereinafter referred to as 0.5% methyl cellulose solution). The administration volume was 10 ml per 1 kg·body weight. […]
• (1) On day 1 at the learning experiment, the mice were acclimated in an experimental room for one hour or longer. • (2) A test compound or the vehicle was orally or intraperitoneally given. • (3) 20 minutes thereafter, (+)-HA966 was administered at 60 μg intracerebroventriculally. • (4) 15 minutes after the dosing of (+)-HA966, the each mouse was placed in the bright room of the experimental apparatus of the passive avoidance reaction test, where the mouse was left for 30 seconds. […] A significance was determined at p<0.05.

With `CC(C)c1nnc(-c2ccc(-c3ccccc3)cc2)n1-c1ccccc1F` [Production Example 1, 3-Biphenyl-4-yl-4-(2-fluorophenyl)-5-isopropyl-4H-1,2,4-triazole] the “normalized activity ((+)-HA966-induced enhancement = 100%)” value [1] was 43% and the minimum effective dose [2] was 3 mg/kg.
